Assay results published in patent publication US20030083501A1, “Process for preparing paroxetine HCl which limits formation of pink colored compounds” (priority 2001, published 2003).
Structures can show the parent of a compound that is named as a salt.

Columns and labels:
Format in all cases: physicochemical
[1] = HPLC content of the impurity at RRT about 1.5 after storage; conditions: storage for 4 days at 55° C., UV 285 nm, b52 gives such levels as HPLC area percentage, HCl
Source text: Without being bound by theory, it is believed that impurities in paroxetine hydrochloride play a role in the color change to pink. The level of the impurities in paroxetine that are associated with a color change to pink can be analyzed in two different manners. One approach is a simple visual analysis, i.e., observing if a sample of paroxetine HCl has turned pink. Another approach is to measure the degree of an impurity identified by a high pressure liquid chromatography (“HPLC”) relative retention time (“RRT”) of about 1.5. The different UV-spectrum characteristic of this impurity has linked the impurity to the development of a pink color. […] Purification steps to remove this impurity such as by crystallization, extraction, chromatography or other separation procedures are often ineffective. The paroxetine hydrochloride of the present process is substantially free of impurities associated with a color change to pink, and is less susceptible, if at all, to develop a pink color overtime These impurities include the impurity identified by an HPLC RRT of about 1.5. Retention time refers to the time required for a compound to pass from the point of injection to the detector. […] Detected by U.V. spectroscopy at λ=285 nm.

[2] = Visual analysis of the colour of a paroxetine HCl solution; conditions: 2 mg/ml paroxetine HCl in 0.05M di-Potassium hydrogen phosphate buffer and 35% acetonitrile, standing 20 minutes
Description: One visual analysis can be carried out by preparing a solution of about 2 mg/ml of paroxetine HCl prepared in a mixture of about 0.05M di-Potassium hydrogen phosphate buffer and about 35% of acetonitrile. […] Preferably, the solution of the paroxetine HCl of the present invention is color free for at least about 20 minutes. On the other hand, available commercial products usually produce a pink colored solution under similar conditions. To test the purity of the final product, a 2 mg/ml solution of paroxetine HCl was prepared in a mixture of 0.05M di-Potassium hydrogen phosphate buffer and 35% of acetonitrile.

[3] = Visual analysis of the colour of solid paroxetine HCl during storage; conditions: storage for at least one month at 55° C.
Description: Another visual analysis can be carried out by observing the color of paroxetine hydrochloride during storage. Preferably, the paroxetine HCl of the present invention is substantially free compounds associated with a pink color for at least four days at a temperature of about 55° C. and a relative humidity of about 60-80%. One of skill in the art can appreciate that the level of the compounds associated with a pink color can vary according to the temperature and other conditions used for storage.
Paroxetine HCl (approximately 4 grams) was dissolved in toluene(40 ml) at reflux. Ascorbic acid (40 mg) and active carbon SX1 (200 mg) were added to the solution and stirred for 5-10 minutes. The solution was then filtered. The filtrate was cooled to 2-4° C., stirred for approximately 1 hour and filtered again to separate a formed precipitate. The solid precipitate was washed with toluene (4 ml) and dried at a temperature of 60° C. under vacuum to give white (color-free) product (3.4 grams). The product was color-free during storage for at least one month at a temperature of 55° C., and yielded solutions (carried out in the same manner as example 1) that were also color-free.

Row | content of the impurity at RRT about 1.5 after storage [1] | development of a pink color in solution [2] | color of the product during storage [3] | SMILES
1 | 0.02 | – | – | Fc1ccc([C@@H]2CCNC[C@H]2COc2ccc3c(c2)OCO3)cc1 [Example 2, paroxetine HCl]
2 | 0.23 | – | – | Fc1ccc([C@@H]2CCNC[C@H]2COc2ccc3c(c2)OCO3)cc1 [Example 3, paroxetine HCl]
3 | – | did not develop a pink color | – | Fc1ccc([C@@H]2CCNC[C@H]2COc2ccc3c(c2)OCO3)cc1 [Example 1, paroxetine HCl]
4 | – | color-free | color-free | Fc1ccc([C@@H]2CCNC[C@H]2COc2ccc3c(c2)OCO3)cc1 [Example 5, Paroxetine HCl]
